From patent US20090232849A1 (priority 2005, published 2009)
Values joined by “and” are separate entries in the source; they are usually repeats but may differ in a detail not shown here. Identical values can stand only once. “Also recorded” adds a separate entry of the source.

Tested on: TLT tumor
Parameters: species or system mice
Details: mouse, in vivo

For `O=P1(N(CCCl)CCCl)NCCCO1` (centres unmarked) [cyclophosphamide], the “regrowth delay to double tumour diameter” value was 7.73 ± 0.38 days and 7.7 ± 0.4 days and the “effect of cyclophosphamide alone on regrowth delay” value (50 mg/kg) was “No difference in regrowth delay; also recorded: just below the efficacy threshold”.
